Among the data in US8134015B2, “Compound inhibiting in vivo phosphorous transport and medicine containing the same” (Kyowa Hakko Kirin Co., Ltd., priority 2003, dated 2012) are IC50 and inhibition values, retold here.

The IC50 is the concentration needed to halve the response being measured. As usually defined, the inhibition is the share of the control response that was lost under treatment. High values mean strong suppression, low ones little suppression.

Each structure is given as a SMILES string. A value given as a limit tells only on which side of the number the result lay.

The target in one assay is T1, rat NaPi-2b (Rattus norvegicus, UniProt Q9JJ09).
T1 construct: expressed in transfected cells; host or cells: Xenopus oocytes injected with cRNA
T1 sequence (Q9JJ09 1-695): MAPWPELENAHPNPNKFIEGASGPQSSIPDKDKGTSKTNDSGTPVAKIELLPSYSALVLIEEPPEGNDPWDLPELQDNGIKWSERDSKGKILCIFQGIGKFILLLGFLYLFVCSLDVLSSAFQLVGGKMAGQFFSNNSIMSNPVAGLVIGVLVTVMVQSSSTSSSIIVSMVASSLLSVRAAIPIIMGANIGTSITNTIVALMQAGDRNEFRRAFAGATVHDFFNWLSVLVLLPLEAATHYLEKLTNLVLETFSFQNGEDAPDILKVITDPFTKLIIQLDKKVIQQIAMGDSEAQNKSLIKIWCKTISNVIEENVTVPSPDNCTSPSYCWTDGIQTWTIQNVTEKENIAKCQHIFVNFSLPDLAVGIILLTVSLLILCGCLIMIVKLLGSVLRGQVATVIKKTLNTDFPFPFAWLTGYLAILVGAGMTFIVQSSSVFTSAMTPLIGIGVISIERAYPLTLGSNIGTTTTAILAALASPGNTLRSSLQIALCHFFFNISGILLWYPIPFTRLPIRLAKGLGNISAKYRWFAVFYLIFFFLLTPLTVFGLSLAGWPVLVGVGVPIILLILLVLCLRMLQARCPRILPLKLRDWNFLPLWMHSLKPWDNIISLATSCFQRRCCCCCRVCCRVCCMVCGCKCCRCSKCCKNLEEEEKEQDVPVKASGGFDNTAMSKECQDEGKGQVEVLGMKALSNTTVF
The assay is described as follows: Sodium-dependent phosphate uptake of Xenopus oocytes which expressed NaPi-2b (32P). As to conditions: Xenopus oocytes expressing rat NaPi-2b, 32P radioactive phosphorus; read-out: IC50 (phosphate uptake inhibitory activity). In kind it is cell-based. In outline:
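Rat small-intestine NaPi-2b cRNA injected into Xenopus oocytes, expressed for 2 days. Sodium-dependent phosphate uptake measured with 32P; % inhibition at 300 and 100 μM taken from the same inhibition curve.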
Regarding `COc1ccc(C(=O)Nc2ccc(N3CCCCC3)cc2C(=O)N/N=C/c2ncc[nH]2)cc1OC` [Compound 937, N-[2-(1H-Imidazol-2-ylmethylene-hydrazinocarbonyl)-4-piperidin-1-yl-phenyl]-3,4-dimethoxy-benzamide], the 50% inhibitory concentration (IC50) turned out to be 137 µM. Take `COc1ccc(NC(=O)c2ccc(OC)c(OC)c2)c(C(=O)N/N=C/c2cccc(F)c2)c1` [Compound 141, N-[2-(3-Fluoro-benzylidene-hydrazinocarbonyl)-4-methoxy-phenyl]-3,4-dimethoxy-benzamide]: the half-inhibitory concentration (IC50) stood at 5.78 µM. With `Cc1ccc(/C=N/NC(=O)c2cc(Br)ccc2NC(=O)c2ccc(CN3CCC(N4CCCCC4)CC3)cc2)cc1C` [Compound 308, 4-[1,4′]Bipiperidinyl-1′-ylmethyl-N-[4-bromo-2-(3,4-dimethyl-benzylidene-hydrazinocarbonyl)-phenyl]-benzamide], the IC50 came to 2.76 µM.

On to `O=C(Nc1ccc(Br)cc1C(=O)N/N=C/c1cccc(F)c1)c1ccno1` [Compound 510, Isoxazole-5-carboxylic acid [4-bromo-2-(3-fluoro-benzylidene-hydrazinocarbonyl)-phenyl]-amide], for which the IC50 was found to be 1.48 µM.

Take `COc1ccc(/C=N/NC(=O)c2c(C)csc2NC(=O)c2cccc(CN3CCC(N4CCCCC4)CC3)c2)cc1` [Compound 574, 3-[1,4′]Bipiperidinyl-1′-ylmethyl-N-[3-(4-methoxy-benzylidene-hydrazinocarbonyl)-4-methyl-thiophen-2-yl]-benzamide]: the IC50 stood at 6.93 µM. With `CN(CCO)Cc1cccc(C(=O)Nc2ccc(Cl)cc2C(=O)N/N=C/c2ccc(F)cc2)c1` [Compound 395, N-[4-Chloro-2-(4-fluoro-benzylidene-hydrazinocarbonyl)-phenyl]-3-{[(2-hydroxy-ethyl)-methyl-amino]-methyl}-benzamide], the concentration for half-maximal inhibition (IC50) worked out at 8.55 µM.

Consider `O=C(Nc1ccc(Br)cc1C(=O)N/N=C/c1cccc(F)c1)c1ccc(CN2CCC(O)CC2)cc1` [Compound 328, N-[4-Bromo-2-(3-fluoro-benzylidene-hydrazinocarbonyl)-phenyl]-4-(4-hydroxy-piperidin-1-ylmethyl)-benzamide], for which the IC50 stood at 1.15 µM. The same measure, in the same setting: with `COc1cc(/C=N/NC(=O)c2ccccc2NC(=O)c2ccc(OC)c(OC)c2)ccc1O` [Compound 11, N-[2-(4-Hydroxy-3-methoxy-benzylidene-hydrazinocarbonyl)-phenyl]-3,4-dimethoxy-benzamide] the figure was 8.21 µM.

For `O=C(Nc1sccc1C(=O)N/N=C/c1cccc(F)c1)c1cccc(CSCCCO)c1` [Compound 661, N-[3-(3-Fluoro-benzylidene-hydrazinocarbonyl)-thiophen-2-yl]-3-(3-hydroxy-propylsulfanylmethyl)-benzamide], the IC50 was < 10 µM.

With `CCN(CC)CCN(C)Cc1cccc(C(=O)Nc2ccc(OCCOC)cc2C(=O)N/N=C/c2ccc(C)cc2)c1` [Compound 1026, 3-{[(2-Diethylamino-ethyl)-methyl-amino]-methyl}-N-[4-(2-methoxy-ethoxy)-2-(4-methyl-benzylidene-hydrazinocarbonyl)-phenyl]-benzamide], the IC50 stood at 3.86 µM. The same measure, in the same setting: to `Cc1cc(/C=N/NC(=O)c2cc(Br)ccc2NC(=O)c2ccncc2)oc1C` [Compound 221, N-[4-Bromo-2-(4,5-dimethyl-furan-2-ylmethylene-hydrazinocarbonyl)-phenyl]-isonicotinamide] belongs 9.51 µM; to `COc1cc(OC)cc(C(=O)Nc2ccccc2C(=O)N/N=C/c2ccc(F)cc2)c1` [Compound 56, N-[2-(4-Fluoro-benzylidene-hydrazinocarbonyl)-phenyl]-3,5-dimethoxy-benzamide], 0.89 µM; to `Cc1cccc(/C=N/NC(=O)c2cc(Br)ccc2NC(=O)c2ccc(CN3CCN(CCO)CC3)cc2)c1` [Compound 318, N-[4-Bromo-2-(3-methyl-benzylidene-hydrazinocarbonyl)-phenyl]-4-[4-(2-hydroxy-ethyl)-piperazin-1-ylmethyl]-benzamide], 2.49 µM. As to `COc1cc(/C=N/NC(=O)c2ccccc2NC(=O)c2ccc(OC)c(OC)c2)cc(OC)c1` [Compound 53, N-[2-(3,5-Dimethoxy-benzylidene-hydrazinocarbonyl)-phenyl]-3,4-dimethoxy-benzamide], the IC50 amounted to 4.05 µM. The same measure, in the same setting: with `COc1ccc(C(=O)Nc2ccc(I)cc2C(=O)N/N=C/c2cccc(F)c2)cc1OC` [Compound 204, N-[2-(3-Fluoro-benzylidene-hydrazinocarbonyl)-4-iodo-phenyl]-3,4-dimethoxy-benzamide] the figure was < 3 µM; with `COc1ccc(C(=O)Nc2ccccc2C(=O)N/N=C/c2ccco2)cc1OC` [Compound 21, N-[2-(Furan-2-ylmethylene-hydrazinocarbonyl)-phenyl]-3,4-dimethoxy-benzamide], 21.5 µM; with `COc1ccc(C(=O)Nc2ccc(N3CCOCC3)cc2C(=O)N/N=C/c2ccc(C)c(C)c2)cc1OC` [Compound 939, N-[2-(3,4-Dimethyl-benzylidene-hydrazinocarbonyl)-4-morpholin-4-yl-phenyl]-3,4-dimethoxy-benzamide], < 3 µM. Same read-out and setting: with `CCSCCNCc1ccc(C(=O)Nc2ccc(Br)cc2C(=O)N/N=C/c2ccc(OC)cc2)cc1` [Compound 770, N-[4-Bromo-2-(4-methoxy-benzylidene-hydrazinocarbonyl)-phenyl]-4-[(2-ethylsulfanyl-ethylamino)-methyl]-benzamide] the figure was 16.5 µM; with `CC(O)CN(Cc1cccc(C(=O)Nc2ccc(Cl)cc2C(=O)N/N=C/c2ccc(OCCCN(C)C)cc2)c1)CC(C)O` (stereo not shown) [Compound 998, 3-{[Bis-(2-hydroxy-propyl)-amino]-methyl}-N-{4-chloro-2-[4-(3-dimethylamino-propoxy)-benzylidene-hydrazinocarbonyl]-phenyl}-benzamide], 16.6 µM; with `CCN1CC(NCc2ccc(C(=O)Nc3ccc(Br)cc3C(=O)N/N=C/c3cccc(F)c3)cc2)CN1CC` [Compound 752, N-[4-Bromo-2-(3-fluoro-benzylidene-hydrazinocarbonyl)-phenyl]-4-[(1,2-diethyl-pyrazolidin-4-ylamino)-methyl]-benzamide], < 3 µM.

On to `O=C(Nc1ccc(N2CCCC(C(=O)O)C2)cc1C(=O)N/N=C/c1ccc(Cl)c(C(F)(F)F)c1)c1cccc(CSCCO)c1` (stereo not shown) [Compound 925, 1-{3-(4-Chloro-3-trifluoromethyl-benzylidene-hydrazinocarbonyl)-4-[3-(2-hydroxy-ethylsulfanylmethyl)-benzoylamino]-phenyl}-piperidine-3-carboxylic acid], for which the IC50 was 25.5 µM. The same measure, in the same setting: to `O=C(Nc1ccc(Br)cc1C(=O)N/N=C/c1ccc(Cl)c(C(F)(F)F)c1)c1ccc(CN2CCC(N3CCCCC3)CC2)cc1` [Compound 313, 4-[1,4′]Bipiperidinyl-1′-ylmethyl-N-[4-bromo-2-(4-chloro-3-trifluoromethyl-benzylidene-hydrazinocarbonyl)-phenyl]-benzamide] belongs 1.24 µM. As for `CN(C)c1ccc(/C=C/C=N/NC(=O)c2ccccc2NC(=O)c2cccnc2)cc1` [Compound 358, N-{2-[3-(4-Dimethylamino-phenyl)-allylidene-hydrazinocarbonyl]-phenyl}-nicotinamide], the IC50 stood at 54.1 µM. Consider `COc1ccc(/C=N/NC(=O)c2cc(OCCCN3CCCCC3)ccc2NC(=O)c2cccc(CSCCO)c2)cc1` [Compound 1040, 3-(2-Hydroxy-ethylsulfanylmethyl)-N-[2-(4-methoxy-benzylidene-hydrazinocarbonyl)-4-(3-piperidin-1-yl-propoxy)-phenyl]-benzamide], for which the IC50 stood at 52.2 µM. With `CCN(CC)CCNCc1cccc(C(=O)Nc2sc3c(c2C(=O)N/N=C/c2ccc(OC)cc2)CCC3)c1` [Compound 815, 3-[(2-Diethylamino-ethylamino)-methyl]-N-[3-(4-methoxy-benzylidene-hydrazinocarbonyl)-5,6-dihydro-4H-cyclopenta[b]thiophen-2-yl]-benzamide], the IC50 was determined as 16.7 µM.

Staying with this assay, now noted: phosphate uptake, oocytes expressing rat NaPi-2b; 300 μM, determined from inhibition curve.
`Cc1ccc(/C=N/NC(=O)c2cc(Cl)ccc2NC(=O)c2cnc3ccccc3n2)cc1C` [Compound 1005, Quinoxaline-2-carboxylic acid [4-chloro-2-(3,4-dimethyl-benzylidene-hydrazinocarbonyl)-phenyl]-amide]: the inhibition at 300 µM amounted to 59.1%. In the case of `COc1ccc(/C=N/NC(=O)c2ccsc2NC(=O)c2cccc(CN(CC(C)O)CC(C)O)c2)cc1` (stereo not shown) [Compound 780, 3-{[Bis-(2-hydroxy-propyl)-amino]-methyl}-N-[3-(4-methoxy-benzylidene-hydrazinocarbonyl)-thiophen-2-yl]-benzamide], the inhibition at 300 µM amounted to 47.7%.

`CCN(CC)CCN(C)Cc1cccc(C(=O)Nc2cc(OCCOC)c(OCCOC)cc2C(=O)N/N=C/c2ccc(Cl)c(C(F)(F)F)c2)c1` [Compound 1031, N-[2-(4-Chloro-3-trifluoromethyl-benzylidene-hydrazinocarbonyl)-4,5-bis-(2-methoxy-ethoxy)-phenyl]-3-{[(2-diethylamino-ethyl)-methyl-amino]-methyl}-benzamide] gave an inhibition at 300 µM of 58.8%.
